# Experimental data from ChEMBL document CHEMBL4028864 (J Med Chem, 2017).
# Legend:
# HCT-116 = assay: Antiproliferative activity against human HCT116 cells after 72 hrs by MTT assay; type: functional, cell-based; conditions: HCT-116, 72 h
# MDA-MB-231 = assay: cells; type: functional, cell-based; conditions: Homo sapiens, MDA-MB-231, 72 h
# PC-3 = assay: cells; type: functional, cell-based; conditions: Homo sapiens, PC-3, 72 h
# [1] = biological target: T1, Tyrosine-protein kinase JAK2 (Homo sapiens, UniProt O60674); assay: Inhibition of human JAK2 using poly[Glu:Tyr] as substrate in presence of [gamma-33P]-ATP
# MCF7 = assay: cells; type: functional, cell-based; conditions: Homo sapiens, MCF7, 72 h
# [2] = biological target: T2, Protein deacetylase HDAC6 (Homo sapiens, UniProt Q9UBN7); assay: Inhibition of N-terminal GST tagged human HDAC6 (1 to 1215 residues) expressed in baculovirus infected insect cells using RHKKAc as substrate in presence of ATP
# T2 sequence (Q9UBN7 whole entry): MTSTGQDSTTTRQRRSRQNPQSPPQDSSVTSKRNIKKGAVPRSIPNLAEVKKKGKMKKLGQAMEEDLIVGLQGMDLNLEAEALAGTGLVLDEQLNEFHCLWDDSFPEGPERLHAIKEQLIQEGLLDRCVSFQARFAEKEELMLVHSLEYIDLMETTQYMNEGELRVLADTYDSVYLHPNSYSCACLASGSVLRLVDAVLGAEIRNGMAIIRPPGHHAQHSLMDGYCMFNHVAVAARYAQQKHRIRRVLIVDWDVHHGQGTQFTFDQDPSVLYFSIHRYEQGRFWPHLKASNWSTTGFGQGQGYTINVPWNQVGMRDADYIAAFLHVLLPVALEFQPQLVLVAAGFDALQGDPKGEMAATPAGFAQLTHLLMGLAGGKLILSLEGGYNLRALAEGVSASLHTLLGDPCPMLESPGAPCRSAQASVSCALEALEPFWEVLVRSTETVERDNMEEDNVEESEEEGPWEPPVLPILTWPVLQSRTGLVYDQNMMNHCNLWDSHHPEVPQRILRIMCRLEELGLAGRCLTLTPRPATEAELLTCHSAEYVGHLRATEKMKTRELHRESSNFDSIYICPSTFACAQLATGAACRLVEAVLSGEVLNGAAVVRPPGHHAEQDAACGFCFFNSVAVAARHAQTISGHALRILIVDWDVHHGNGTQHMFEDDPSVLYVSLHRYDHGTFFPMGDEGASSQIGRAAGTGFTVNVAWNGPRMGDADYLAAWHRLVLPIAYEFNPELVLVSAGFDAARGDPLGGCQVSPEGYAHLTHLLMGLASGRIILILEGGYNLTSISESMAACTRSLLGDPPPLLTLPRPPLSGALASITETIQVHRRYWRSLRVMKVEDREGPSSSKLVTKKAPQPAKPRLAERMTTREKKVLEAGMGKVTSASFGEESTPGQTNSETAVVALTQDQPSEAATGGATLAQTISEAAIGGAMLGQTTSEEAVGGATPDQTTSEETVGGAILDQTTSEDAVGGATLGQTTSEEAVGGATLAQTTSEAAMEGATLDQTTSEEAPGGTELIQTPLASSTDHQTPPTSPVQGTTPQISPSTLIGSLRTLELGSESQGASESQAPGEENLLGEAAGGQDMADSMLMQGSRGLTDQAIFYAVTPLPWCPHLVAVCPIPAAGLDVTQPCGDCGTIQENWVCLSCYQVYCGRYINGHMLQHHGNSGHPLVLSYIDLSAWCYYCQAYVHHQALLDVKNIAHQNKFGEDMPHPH
# [3] = biological target: T1, Tyrosine-protein kinase JAK2; assay: Binding affinity to N-terminal His tagged human recombinant JAK2 (1014 to 1132 residues) expressed in Escherichia coli after 60 to 90 mins by LC/MS analysis; conditions: read-out: Kd(app)
# HL-60 [4] = assay: Antiproliferative activity against human HL60 cells; type: functional, cell-based
# HEL 92.1.7 = assay: cells; type: functional, cell-based; conditions: Homo sapiens, HEL 92.1.7, 36 h
# Histone deacetylase 1 = Histone deacetylase 1 (Homo sapiens, UniProt Q13547); assay: Inhibition of C-terminal FLAG His tagged full length human recombinant HDAC1 (1 to 482 residues) expressed in baculovirus infected sf21 cells using RHKKAc as substrate in presence of ATP
# Jurkat = assay: cells; type: functional, cell-based; conditions: Homo sapiens
# cells [5] = type: functional, cell-based; conditions: Homo sapiens, NKYS, 48 h
# KMS-12-BM = assay: cells; type: functional, cell-based; conditions: Homo sapiens, 48 h
# cells [6] = type: ADME, cell-based; conditions: Homo sapiens, AC10, 24 h
# MOLM-14 = assay: cells; type: functional, cell-based; conditions: Homo sapiens, MOLM-14, 48 h
# HL-60 [7] = assay: Antiproliferative activity against human HL60 cells at 4 uM after 36 hrs by PrestoBlue dye based assay relative to control; type: functional
# T1 sequence (O60674 whole entry): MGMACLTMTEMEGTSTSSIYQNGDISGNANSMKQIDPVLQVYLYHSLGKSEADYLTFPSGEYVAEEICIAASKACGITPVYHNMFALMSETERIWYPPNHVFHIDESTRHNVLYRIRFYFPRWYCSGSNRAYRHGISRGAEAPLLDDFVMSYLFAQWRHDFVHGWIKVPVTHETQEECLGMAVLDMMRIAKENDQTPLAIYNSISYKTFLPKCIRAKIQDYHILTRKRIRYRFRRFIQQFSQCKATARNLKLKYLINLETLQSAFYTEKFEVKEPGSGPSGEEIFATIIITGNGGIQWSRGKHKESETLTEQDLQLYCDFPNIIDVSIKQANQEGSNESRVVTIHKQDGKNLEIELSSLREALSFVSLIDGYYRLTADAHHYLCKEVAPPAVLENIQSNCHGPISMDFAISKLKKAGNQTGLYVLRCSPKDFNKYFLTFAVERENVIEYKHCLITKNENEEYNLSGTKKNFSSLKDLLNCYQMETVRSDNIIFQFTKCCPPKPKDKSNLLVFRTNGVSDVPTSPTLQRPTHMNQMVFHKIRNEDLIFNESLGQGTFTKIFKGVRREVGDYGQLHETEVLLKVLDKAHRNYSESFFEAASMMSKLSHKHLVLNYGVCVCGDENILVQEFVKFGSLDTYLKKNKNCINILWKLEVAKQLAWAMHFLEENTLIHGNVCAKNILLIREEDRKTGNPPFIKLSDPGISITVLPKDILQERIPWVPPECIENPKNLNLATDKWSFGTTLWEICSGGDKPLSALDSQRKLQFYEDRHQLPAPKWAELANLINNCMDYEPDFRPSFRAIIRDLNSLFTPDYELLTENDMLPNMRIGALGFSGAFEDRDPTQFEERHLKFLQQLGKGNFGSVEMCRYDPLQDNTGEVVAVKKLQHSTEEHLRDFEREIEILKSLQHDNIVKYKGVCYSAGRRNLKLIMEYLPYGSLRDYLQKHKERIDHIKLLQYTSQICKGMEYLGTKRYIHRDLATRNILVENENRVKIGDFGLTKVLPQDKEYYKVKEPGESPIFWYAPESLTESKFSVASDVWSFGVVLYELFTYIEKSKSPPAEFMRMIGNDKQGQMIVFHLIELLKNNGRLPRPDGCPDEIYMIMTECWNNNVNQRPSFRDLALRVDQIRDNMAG
# Chain of Histone deacetylase 1 (Q13547 whole entry, the tested form may be a part): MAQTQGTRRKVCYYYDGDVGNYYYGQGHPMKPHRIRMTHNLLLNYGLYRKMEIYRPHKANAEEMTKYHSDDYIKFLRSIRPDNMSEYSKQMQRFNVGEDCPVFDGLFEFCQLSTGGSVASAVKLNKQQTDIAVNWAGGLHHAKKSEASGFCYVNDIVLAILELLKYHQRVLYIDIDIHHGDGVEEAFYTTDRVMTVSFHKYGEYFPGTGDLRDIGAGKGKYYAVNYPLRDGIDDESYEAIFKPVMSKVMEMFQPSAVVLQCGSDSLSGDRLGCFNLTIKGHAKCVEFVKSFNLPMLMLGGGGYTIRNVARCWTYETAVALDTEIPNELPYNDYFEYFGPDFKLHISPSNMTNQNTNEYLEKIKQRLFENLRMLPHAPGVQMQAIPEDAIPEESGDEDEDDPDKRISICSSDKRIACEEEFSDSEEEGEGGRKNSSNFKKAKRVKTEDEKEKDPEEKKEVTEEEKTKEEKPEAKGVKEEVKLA
IC50 (HCT-116) [nM],IC50 (MDA-MB-231) [nM],IC50 (PC-3) [nM],IC50 [1] [nM],IC50 (MCF7) [nM],IC50 [2] [nM],Kd [3] [nM],IC50 (HL-60 [4]) [nM],IC50 (HEL 92.1.7) [nM],IC50 (Histone deacetylase 1) [nM],IC50 (Jurkat) [nM],IC50 (cells [5]) [nM],IC50 (KMS-12-BM) [nM],IC50 (cells [6]) [nM],IC50 (MOLM-14) [nM],Structure (SMILES),Activity (HL-60 [7]) [%]
19400,25500,23900,265,15200,0.14,1000,> 10000,> 4000,110,4000,,,,,O=C(CCCCCCC(=O)Nc1ccc(NCCCn2cc(-c3ncnc4[nH]ccc34)cn2)cc1)NO,
> 100000,> 100000,> 100000,1200,> 100000,550,2000,,,,,,,,,O=C(CCCCCCC(=O)Nc1ccc(NC(=O)CCCn2cc(-c3ncnc4[nH]ccc34)cn2)cc1)NO,
> 100000,> 100000,> 100000,3560,> 100000,604,5000,,,,,,,,,O=C(CCCn1cc(-c2ncnc3[nH]ccc23)cn1)NO,

# Second part, the compound before the results:
Structure (SMILES),IC50 (HCT-116) [nM],IC50 (MDA-MB-231) [nM],IC50 (PC-3) [nM],IC50 [1] [nM],IC50 (MCF7) [nM],IC50 [2] [nM],Kd [3] [nM],IC50 (HL-60 [4]) [nM],IC50 (HEL 92.1.7) [nM],IC50 (Histone deacetylase 1) [nM],IC50 (Jurkat) [nM],IC50 (cells [5]) [nM],IC50 (KMS-12-BM) [nM],IC50 (cells [6]) [nM],IC50 (MOLM-14) [nM],Activity (HL-60 [7]) [%]
O=C(CCCCCCC(=O)Nc1ccccc1)NO [VORINOSTAT],1850,,,,,,,,,,,,,,,
C1=N/C2=N/c3ccc(OCCN4CCCC4)c(c3)COC/C=C/COCc3cccc(c3)C(=C1)N2 [PACRITINIB],,,,,,,,,,,,1600,750,2020,79,
O=C(CCCCCCOc1ccc2cc1COC/C=C/COCc1cccc(c1)-c1ccnc(n1)N2)NO,,,,,,,,4000,940,,1190,,2110,2070,,47
